Tests used:
Type in all cases: biochemical
[1] = target: T1, FGFR1 V561M (Homo sapiens, UniProt P11362, V561M); experiment: Assay I: inhibitory activity against FGFR mutants (HTRF KinEASE-TK); conditions: ATP 5 μM, substrate TK 1 μM
T1 construct: purchased Signalchem F04-13G
Method: (§1) Assay I: Determination of Inhibitory Activity Against FGFR Mutants
(§2) 1. Reagents and Equipment
(§3) 2.1 Preparation of 1× Kinase Reaction Buffer:
(§4) 1× Kinase reaction buffer was formulated with 1× volume of 5× kinase reaction buffer and 4× volume of water; 5 mM MgCl2; and 1 mM DTT.
(§5) 2.3 Screening of Compounds:
(§6) 1. Diluting a compound 4-fold in a dilution plate with DMSO, with a starting compound concentration of 2 mM.
(§7) 2. Diluting the compound 40-fold into 1× kinase reaction buffer and shaking it on a shaker for 20 minutes.
(§8) 5. Adding 1 μl of the compound diluted in buffer to each well, sealing the plate with a sealing membrane and centrifuging the plate at 1000 g for 30 seconds and leaving it at room temperature for 10 minutes.
(§9) 6. Formulating 2.5×TK-substrate-biotin and ATP mixture with 1× enzyme reaction buffer and adding 2 μl of K-substrate-biotin/ATP mixture to the reaction plate.
(§10) 7. Sealing the plate with a sealing membrane and centrifuging the plate at 1000 g for 30 seconds and allowing it to react at room temperature for 50 minutes.
(§11) 8. Formulating 4× Sa-XL 665 (250 nM) with HTRF assay buffer.
(§12) 9. Adding 5 μl Sa-XL 665 and 5 μl TK-Antibody-Cryptate to each well, centrifuging it at 1000 g for 30 seconds, and allowing it to react for 1 hour at room temperature.
(§13) 10. Reading fluorescence signals at 615 nm (Cryptate) and 665 nm (XL665) with Biotek.
(§14) 3.1 Calculation of the ratio for each well: the ratio was calculated as 665/615 nm.
(§15) 3.3 Calculation of IC50 and plotting of inhibition curves for the compounds.
(§16) The IC50 (half inhibition concentration) of a compound was obtained using the following non-linear fitting equation, wherein data analysis was performed using Graphpad 6.0 software.
(§17) Y=Bottom+(Top−Bottom)/(1+10^((Log IC50−X)*Hill Slope)) • X: log value of compound concentration; and Y: inhibition rate (% inh)
(§18) 3.4 Validation of Results
(§19) Data were exported from Envision and analyzed manually. The ratios were converted to inhibition rates and IC50 was calculated by Prism GraphPad 6.0 from the inhibition rates. IC50 was calculated again by the ratios to verify accuracy of the results.

[2] = target: T2, FGFR2 V564F (Homo sapiens, UniProt P21802, V564F); experiment: as above; conditions: ATP 10 μM, substrate TK 1 μM
T2 construct: purchased Signalchem F05-12FG
Method: as §1, §2, §3, §4, §5, §6, §7, §8, §9, §10, §11, §12, §13, §14, §15, §16, §17, §18, §19

[3] = target: T3, FGFR3 V555M (Homo sapiens, UniProt P22607, V555M); experiment: as above; conditions: ATP 20 μM, substrate TK 1 μM
T3 construct: purchased Signalchem F06-12GG
Method: as §1, §2, §3, §4, §5, §6, §7, §8, §9, §10, §11, §12, §13, §14, §15, §16, §17, §18, §19

[4] = target: T4, VEGFR2 (Homo sapiens, UniProt P35968); experiment: Assay I: VEGFR2 kinase inhibition (HTRF KinEASE-TK); conditions: ATP 5 μM, substrate TK 1 μM
T4 construct: purchased Carna 08-191
Method: as §1, §2, §3, §4, §5, §6, §7
3. Formulating 2×FGFR1 V561M/FGFR2 V564F/FGFR3 K650E/VEGFR2 with 1× of enzyme reaction buffer.
4. Adding 2 μl FGFR1 V561M/FGFR2 V564F/FGFR3 K650E/VEGFR2 kinase (formulated in step 3) to each well of the reaction plate.
as §8, §9, §10, §11, §12, §13, §14, §15, §16, §17, §18, §19
Positive control IC50 was within 3 times of the average value

[5] = target: T5, FGFR1 (Homo sapiens, UniProt P11362); experiment: Assay II: inhibitory activity against wild-type FGFR (HTRF KinEASE-TK); conditions: ATP 50 μM, substrate TK 1 μM
T5 construct: purchased Carna 08-133
Method: (§20) Assay II: Determination of Inhibitory Activity Against Wild-Type FGFR
as §2
(§21) 2. Experimental Steps PGP-5T
as §3, §4, §5, §6, §7
(§22) 3. Formulating 2×FGFR1/FGFR2/FGFR3 with 1× of enzyme reaction buffer.
(§23) 4. Adding 2 μl FGFR1/FGFR2/FGFR3 kinase (formulated in step 3) to each well of the reaction plate.
as §8
(§24) 6. Formulating 2.5×TK-substrate-biotin and ATP mixture with 1× enzyme reaction buffer and add 2 μl of K-substrate-biotin/ATP mixture to the reaction plate.
as §10, §11, §12, §13, §14, §15, §16, §17, §18, §19

[6] = target: T6, FGFR2 (Homo sapiens, UniProt P21802); experiment: as above; conditions: ATP 50 μM, substrate TK 1 μM
T6 construct: purchased Carna 08-134
Method: as §20, §2, §21, §3, §4, §5, §6, §7, §22, §23, §8, §24, §10, §11, §12, §13, §14, §15, §16, §17, §18, §19

[7] = target: T7, FGFR3 (Homo sapiens, UniProt P22607); experiment: as above; conditions: ATP 50 μM, substrate TK 1 μM
T7 construct: purchased Carna 08-135
Method: as §20, §2, §21, §3, §4, §5, §6, §7, §22, §23, §8, §24, §10, §11, §12, §13, §14, §15, §16, §17, §18, §19

T5 sequence (P11362 22-822): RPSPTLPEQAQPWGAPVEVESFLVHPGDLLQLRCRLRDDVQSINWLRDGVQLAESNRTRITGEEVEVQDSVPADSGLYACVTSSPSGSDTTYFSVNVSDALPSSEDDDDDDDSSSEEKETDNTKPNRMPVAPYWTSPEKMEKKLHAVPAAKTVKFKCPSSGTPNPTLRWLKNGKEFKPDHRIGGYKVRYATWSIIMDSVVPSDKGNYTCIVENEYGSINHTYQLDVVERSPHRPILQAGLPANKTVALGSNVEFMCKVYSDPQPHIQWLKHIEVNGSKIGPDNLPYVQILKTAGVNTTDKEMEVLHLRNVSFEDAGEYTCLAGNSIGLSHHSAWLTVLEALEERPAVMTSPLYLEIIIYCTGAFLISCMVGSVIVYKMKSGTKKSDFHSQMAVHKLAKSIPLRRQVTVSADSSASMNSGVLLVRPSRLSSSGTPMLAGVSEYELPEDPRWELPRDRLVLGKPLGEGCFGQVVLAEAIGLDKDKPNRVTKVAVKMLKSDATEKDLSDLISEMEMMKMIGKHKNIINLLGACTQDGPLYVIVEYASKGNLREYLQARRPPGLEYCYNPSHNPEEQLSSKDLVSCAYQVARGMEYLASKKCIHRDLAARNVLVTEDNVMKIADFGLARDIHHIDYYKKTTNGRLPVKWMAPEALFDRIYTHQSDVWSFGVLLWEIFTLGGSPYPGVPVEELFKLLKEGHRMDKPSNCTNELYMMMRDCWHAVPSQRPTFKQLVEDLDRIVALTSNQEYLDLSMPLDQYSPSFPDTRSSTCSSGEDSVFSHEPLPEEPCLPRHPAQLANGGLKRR
T2 sequence (P21802 22-821 V564F): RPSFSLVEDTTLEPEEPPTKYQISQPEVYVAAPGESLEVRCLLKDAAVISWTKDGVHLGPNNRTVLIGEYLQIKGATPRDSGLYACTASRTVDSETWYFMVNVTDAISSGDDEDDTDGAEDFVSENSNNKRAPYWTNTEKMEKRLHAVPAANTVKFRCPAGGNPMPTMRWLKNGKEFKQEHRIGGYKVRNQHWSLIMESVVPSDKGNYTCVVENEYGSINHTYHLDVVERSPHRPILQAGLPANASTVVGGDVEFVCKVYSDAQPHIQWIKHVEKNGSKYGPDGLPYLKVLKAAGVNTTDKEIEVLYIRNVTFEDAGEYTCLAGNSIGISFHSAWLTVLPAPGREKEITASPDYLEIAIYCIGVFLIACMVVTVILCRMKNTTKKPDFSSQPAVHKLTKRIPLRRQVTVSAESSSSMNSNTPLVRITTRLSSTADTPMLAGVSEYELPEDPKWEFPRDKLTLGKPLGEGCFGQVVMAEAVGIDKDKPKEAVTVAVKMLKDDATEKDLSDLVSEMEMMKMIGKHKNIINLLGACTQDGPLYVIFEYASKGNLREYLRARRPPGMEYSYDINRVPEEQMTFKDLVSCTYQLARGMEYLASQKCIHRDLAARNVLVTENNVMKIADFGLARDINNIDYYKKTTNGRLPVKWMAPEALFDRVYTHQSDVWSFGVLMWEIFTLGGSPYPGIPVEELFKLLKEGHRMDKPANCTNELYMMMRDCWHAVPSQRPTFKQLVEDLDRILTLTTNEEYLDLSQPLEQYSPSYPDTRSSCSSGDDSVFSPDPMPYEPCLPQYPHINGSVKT
T4 sequence (P35968 20-1356): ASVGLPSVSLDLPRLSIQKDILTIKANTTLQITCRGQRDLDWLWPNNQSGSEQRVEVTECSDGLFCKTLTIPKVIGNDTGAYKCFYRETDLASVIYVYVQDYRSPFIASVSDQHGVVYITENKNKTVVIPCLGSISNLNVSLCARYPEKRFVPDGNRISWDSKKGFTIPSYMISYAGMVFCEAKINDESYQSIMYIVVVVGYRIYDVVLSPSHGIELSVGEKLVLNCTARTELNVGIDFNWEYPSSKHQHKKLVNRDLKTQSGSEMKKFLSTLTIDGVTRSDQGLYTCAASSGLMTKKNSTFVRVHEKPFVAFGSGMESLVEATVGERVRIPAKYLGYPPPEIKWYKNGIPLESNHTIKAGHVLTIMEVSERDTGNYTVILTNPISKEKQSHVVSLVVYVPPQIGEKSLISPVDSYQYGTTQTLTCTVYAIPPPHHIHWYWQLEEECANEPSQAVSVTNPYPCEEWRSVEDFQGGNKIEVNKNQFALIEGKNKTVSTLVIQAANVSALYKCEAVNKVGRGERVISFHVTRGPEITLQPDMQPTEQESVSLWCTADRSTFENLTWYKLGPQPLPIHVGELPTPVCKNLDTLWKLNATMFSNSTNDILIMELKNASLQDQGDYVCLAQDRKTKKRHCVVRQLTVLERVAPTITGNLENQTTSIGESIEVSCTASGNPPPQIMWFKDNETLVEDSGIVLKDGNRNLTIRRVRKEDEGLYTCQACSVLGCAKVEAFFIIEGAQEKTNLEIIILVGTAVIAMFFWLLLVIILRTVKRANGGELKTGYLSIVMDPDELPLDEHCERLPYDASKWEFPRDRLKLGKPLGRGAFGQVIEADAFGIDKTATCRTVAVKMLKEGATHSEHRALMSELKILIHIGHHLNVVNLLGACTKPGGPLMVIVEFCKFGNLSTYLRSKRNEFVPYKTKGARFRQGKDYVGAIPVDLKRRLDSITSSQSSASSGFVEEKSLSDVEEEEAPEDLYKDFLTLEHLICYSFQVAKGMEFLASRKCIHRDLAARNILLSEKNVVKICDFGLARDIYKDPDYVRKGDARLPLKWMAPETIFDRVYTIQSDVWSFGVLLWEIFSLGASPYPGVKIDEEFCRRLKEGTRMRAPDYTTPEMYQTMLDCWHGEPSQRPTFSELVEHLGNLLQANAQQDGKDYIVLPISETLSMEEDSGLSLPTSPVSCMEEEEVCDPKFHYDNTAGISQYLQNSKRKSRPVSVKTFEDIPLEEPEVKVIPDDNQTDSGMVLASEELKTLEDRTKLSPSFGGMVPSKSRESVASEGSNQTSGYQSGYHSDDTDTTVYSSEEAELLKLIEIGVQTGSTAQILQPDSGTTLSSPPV
T3 sequence (P22607 397-806 V555M limits assumed): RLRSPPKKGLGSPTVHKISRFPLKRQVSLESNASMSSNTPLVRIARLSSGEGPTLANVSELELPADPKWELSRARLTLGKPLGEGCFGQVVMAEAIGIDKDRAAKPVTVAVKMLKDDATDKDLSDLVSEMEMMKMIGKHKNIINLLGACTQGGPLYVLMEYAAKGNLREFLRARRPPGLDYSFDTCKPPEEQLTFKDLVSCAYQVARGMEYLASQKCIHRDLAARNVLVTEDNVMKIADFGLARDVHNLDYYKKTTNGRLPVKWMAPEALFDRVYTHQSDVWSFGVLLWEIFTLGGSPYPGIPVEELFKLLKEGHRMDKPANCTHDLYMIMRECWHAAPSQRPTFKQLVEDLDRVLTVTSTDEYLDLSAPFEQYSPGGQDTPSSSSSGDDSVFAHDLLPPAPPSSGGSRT
T7 sequence (P22607 23-806): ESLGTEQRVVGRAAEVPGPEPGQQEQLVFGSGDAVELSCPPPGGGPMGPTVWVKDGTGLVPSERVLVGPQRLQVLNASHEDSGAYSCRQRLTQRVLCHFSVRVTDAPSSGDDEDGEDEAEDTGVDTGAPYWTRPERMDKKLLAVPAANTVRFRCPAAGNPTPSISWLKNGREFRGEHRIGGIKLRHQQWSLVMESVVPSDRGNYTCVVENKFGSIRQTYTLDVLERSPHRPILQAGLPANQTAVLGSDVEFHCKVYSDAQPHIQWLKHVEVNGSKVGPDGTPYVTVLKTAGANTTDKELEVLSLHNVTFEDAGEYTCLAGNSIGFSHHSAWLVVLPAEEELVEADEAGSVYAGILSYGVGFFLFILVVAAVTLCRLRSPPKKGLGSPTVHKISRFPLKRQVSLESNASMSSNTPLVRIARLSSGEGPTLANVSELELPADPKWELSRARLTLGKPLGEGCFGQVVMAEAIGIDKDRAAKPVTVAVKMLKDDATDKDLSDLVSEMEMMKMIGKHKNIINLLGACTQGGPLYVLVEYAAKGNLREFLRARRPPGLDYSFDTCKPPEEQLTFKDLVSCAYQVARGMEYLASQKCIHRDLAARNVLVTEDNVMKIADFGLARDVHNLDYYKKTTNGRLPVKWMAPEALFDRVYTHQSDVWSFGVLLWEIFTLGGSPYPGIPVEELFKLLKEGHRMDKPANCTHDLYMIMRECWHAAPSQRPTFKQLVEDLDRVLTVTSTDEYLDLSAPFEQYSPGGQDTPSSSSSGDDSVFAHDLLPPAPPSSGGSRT
T1 sequence (P11362 22-822 V561M): as the sequence (P11362 22-822) above, with V540M counted along it
T6 sequence (P21802 22-821): as the sequence (P21802 22-821 V564F) above, with F543V counted along it

Compound | IC50 [1] [nM] | IC50 [2] [nM] | IC50 [3] [nM] | IC50 [4] [nM] | IC50 [5] [nM] | IC50 [6] [nM] | IC50 [7] [nM]
CC(Oc1ccc2[nH]nc(-c3nc4c([nH]3)CN(C(=O)N3CCN(C)CC3)CC4)c2c1)c1c(Cl)cncc1Cl (stereo not shown) [Compound 5, (2-(5-(1-(3,5-dichloropyridin-4-yl)ethoxy)-1H-indazol-3-yl)-3,4,6,7-tetrahydro-5H-imidazo[4,5-c]pyridin-5-yl)(4-methylpiperazin-1-yl)ketone] | 0.58 | 0.36 | 0.23 | 0.75 | 1.8 | 2.1 | 3.8
C[C@@H](Oc1ccc2[nH]nc(-c3nc4c([nH]3)CN(C(=O)[C@@H]3CCCN3)C4)c2c1)c1c(Cl)cncc1Cl [Compound 44, 3-(5-(L-prolinyl)-1,4,5,6-tetrahydropyrrolo[3,4-d]imidazol-2-yl)-5-((R)-1-(3,5-dichloropyridin-4-yl)ethoxy)-1H-indazole] | 0.82 | 0.32 | 0.43 | 5.3 | – | – | –
C[C@@H](Oc1ccc2[nH]nc(-c3nc4c([nH]3)CN(C(=O)[C@@H]3CCCN3C)C4)c2c1)c1c(Cl)cncc1Cl [Compound 45, 5-((R)-1-(3,5-dichloropyridin-4-yl)ethoxy)-3-(5-(methyl-L-prolinyl)-1,4,5,6-tetrahydropyrrolo[3,4-d]imidazol-2-yl)-1H-indazole] | 0.81 | 0.36 | 0.18 | 7.6 | – | – | –
C[C@@H](Oc1ccc2[nH]nc(-c3nc4c([nH]3)CN(C(=O)[C@@H]3CCCCN3)C4)c2c1)c1c(Cl)cncc1Cl [Compound 46, (2-(5-((R)-1-(3,5-dichloropyridin-4-yl)ethoxy)-1H-indazol-3-yl)-4,6-dihydropyrrolo[3,4-d]imidazol-5(1H)-yl)((S)-piperidin-2-yl)ketone] | 0.65 | 0.29 | 0.33 | 9.9 | – | – | –
C[C@@H](Oc1ccc2[nH]nc(-c3nc4c([nH]3)CN(C(=O)CN3CCCCC3)C4)c2c1)c1c(Cl)cncc1Cl [Compound 50, (R)-1-(2-(5-(1-(3,5-dichloropyridin-4-yl)ethoxy)-1H-indazol-3-yl)-4,6-dihydropyrrolo[3,4-d]imidazol-5(1H)-yl)-2-(piperidin-1-yl)ethan-1-one] | 1.2 | 0.21 | 0.35 | 8.4 | – | – | –
C[C@@H](Oc1ccc2[nH]nc(-c3nc4c([nH]3)CN(C(=O)CN3CCC3)C4)c2c1)c1c(Cl)cncc1Cl [Compound 51, (R)-2-(Azetidin-1-yl)-1-(2-(5-(1-(3,5-dichloropyridin-4-yl)ethoxy)-1H-indazol-3-yl)-4,6-dihydropyrrolo[3,4-d]imidazol-5(1H)-yl)ethan-1-one] | 0.74 | 0.21 | 0.16 | 14.2 | – | – | –
C[C@@H](Oc1ccc2[nH]nc(-c3nc4c([nH]3)CN(C(=O)CN3CC(O)C3)C4)c2c1)c1c(Cl)cncc1Cl [Compound 52, (R)-1-(2-(5-(1-(3,5-Dichloropyridin-4-yl)ethoxy)-1H-indazol-3-yl)-4,6-dihydropyrrolo[3,4-d]imidazol-5(1H)-yl)-2-(3-hydroxyazetidin-1-yl)ethan-1-one] | 0.87 | 0.16 | 0.14 | 13.6 | – | – | –
C[C@@H](Oc1ccc2[nH]nc(-c3nc4c([nH]3)CN(C(=O)CN3CC(F)C3)C4)c2c1)c1c(Cl)cncc1Cl [Compound 53, (R)-1-(2-(5-(1-(3,5-dichloropyridin-4-yl)ethoxy)-1H-indazol-3-yl)-4,6-dihydropyrrolo[3,4-d]imidazol-5(1H)-yl)-2-(3-fluoroazetidin-1-yl)ethan-1-one] | 6.4 | 0.82 | 1.9 | 45.5 | – | – | –
C[C@@H](Oc1ccc2[nH]nc(-c3nc4c([nH]3)CN(C(=O)OCCN(C)C)C4)c2c1)c1c(Cl)cncc1Cl [Compound 54, 2-(dimethylamino)ethyl(R)-2-(5-(1-(3,5-dichloropyridin-4-yl)ethoxy)-1H-indazol-3-yl)-4,6-dihydropyrrolo[3,4-d]imidazole-5(1H)-carboxylate] | 0.55 | 0.15 | 0.11 | 3.3 | – | – | –
C[C@@H](Oc1ccc2[nH]nc(-c3nc4c([nH]3)CN(C(=O)OC3CCN(C)C3)C4)c2c1)c1c(Cl)cncc1Cl (stereo partly drawn) [Compound 55, 1-Methylpyrrolidin-3-yl 2-(5-((R)-1-(3,5-dichloropyridin-4-yl)ethoxy)-1H-indazol-3-yl)-4,6-dihydropyrrolo[3,4-d]imidazole-5(1H)-carboxylate] | 5.1 | 0.34 | 0.87 | 13.4 | – | – | –

Stronger by IC50 [1], values ahead:

IC50 [1] [nM] | IC50 [2] [nM] | IC50 [3] [nM] | IC50 [4] [nM] | IC50 [5] [nM] | IC50 [6] [nM] | IC50 [7] [nM] | Compound
0.26 | 0.34 | 0.34 | 1 | 2.7 | 2.9 | 4.1 | CC(Oc1ccc2[nH]nc(-c3nc4c([nH]3)CN(C(=O)N3CCN(C)CC3)C4)c2c1)c1c(Cl)cncc1Cl (stereo not shown) [Compound 1, (2-(5-(1-(3,5-dichloropyridin-4-yl)ethoxy)-1H-indazol-3-yl)-4,6-dihydropyrrolo[3,4-d]imidazol-5(1H)-yl)(4-methylpiperazin-1-yl)ketone]
0.33 | 0.36 | 0.45 | 2.1 | 4.1 | 2.8 | 4.5 | CC(Oc1ccc2[nH]nc(-c3nc4c([nH]3)CN(C(=O)N3CCOCC3)C4)c2c1)c1c(Cl)cncc1Cl (stereo not shown) [Compound 8, (2-(5-(1-(3,5-dichloropyridin-4-yl)ethoxy)-1H-indazol-3-yl)-4,6-dihydropyrrolo[3,4-d]imidazol-5(1H)-yl)(morpholinyl)ketone]
0.2 | 0.33 | 0.35 | 2.4 | 3.1 | 2.2 | 3.4 | CC(Oc1ccc2[nH]nc(-c3nc4c([nH]3)CN(C(=O)N3CC[C@H](O)C3)C4)c2c1)c1c(Cl)cncc1Cl (stereo partly drawn) [Compound 10, (2-(5-(1-(3,5-dichloropyridin-4-yl)ethoxy)-1H-indazol-3-yl)-4,6-dihydropyrrolo[3,4-d]imidazol-5(1H)-yl)((S)-3-hydroxypyrrolidin-1-yl)ketone]
0.46 | 1.3 | 1.1 | 25.6 | 1.7 | 0.95 | 0.6 | CC(Oc1ccc2[nH]nc(-c3nc4c([nH]3)CN(C)C4)c2c1)c1c(Cl)cncc1Cl (stereo not shown) [Compound 11, 5-(1-(3,5-dichloropyridin-4-yl)ethoxy)-3-(5-methyl-1,4,5,6-tetrahydropyrrolo[3,4-d]imidazol-2-yl)-1H-indazole]
0.26 | 0.13 | 0.35 | 3.3 | – | – | – | C[C@@H](Oc1ccc2[nH]nc(-c3nc4c([nH]3)CN(C(=O)CN(C)C)C4)c2c1)c1c(Cl)cncc1Cl [Compound 43, (R)-1-(2-(5-(1-(3,5-dichloropyridin-4-yl)ethoxy)-1H-indazol-3-yl)-4,6-dihydropyrrolo[3,4-d]imidazol-5(1H)-yl)-2-(dimethylamino)ethan-1-one]
0.29 | 0.21 | 0.14 | 2.5 | – | – | – | C[C@@H](Oc1ccc2[nH]nc(-c3nc4c([nH]3)CN(C(=O)[C@@H]3CCCCN3C)C4)c2c1)c1c(Cl)cncc1Cl [Compound 47, (2-(5-((R)-1-(3,5-dichloropyridin-4-yl)ethoxy)-1H-indazol-3-yl)-4,6-dihydropyrrolo[3,4-d]imidazol-5(1H)-yl)((S)-1-methylpiperidin-2-yl)ketone]
